From PubChem BioAssay AID743090 (Broad Institute, 2013) come the findings set out here.

The source made the active and inactive calls.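 Rule for the calls: active = IC50 below 10 µM in A549 cells, with the call taken as the median across tests; inactive = IC50 above 10 µM in A549 cells.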

The subject of the experiment is A549 viability, CellTiter-Glo luminescence, 48 h. Kind of experiment: cytotoxicity in TP53 wild-type A549 cells – cell-based, CellTiter-Glo luminescence, dry powder, selectivity assay for TP53-mutant selective toxicity project, dose response (AID 743090). For orientation: In ATP-based viability assays light output follows the ATP content of the culture.

Usually IC50 stands for the concentration at which inhibition is half-maximal. In the case of `C[C@@H]1CC(=O)NN=C1c1ccc(F)c(F)c1`, the IC50 is > 10 µM (inactive).

`C[C@@H]1CC(=O)NN=C1c1ccc(-n2cnnc2)cc1`: the IC50 is > 10 µM (inactive).

On to `C[C@@H]1CC(=O)NN=C1c1ccc(N)c([N+](=O)[O-])c1`, for which the IC50 was > 10 µM (inactive).

Regarding `Cc1cc(=O)[nH]nc1-c1ccc(N)cc1`, the IC50 was > 10 µM (inactive).

Consider `Cc1nc2ccc(C3=NNC(=O)C[C@H]3C)cc2[nH]1`, for which the IC50 is > 10 µM (inactive).

As for `CCN(CC)c1ccc(-c2nc(C(C)C)no2)cc1[N+](=O)[O-]`, the IC50 is > 10 µM (inactive).

Turning to `CC(=O)Nc1ccc(C2=NNC(=O)CC2C)cc1` (stereo not drawn), the IC50 was > 10 µM (inactive).

With `CC(=O)Nc1ccc(C2=NNC(=O)C[C@H]2C)cc1N`, the IC50 was > 10 µM (inactive).

For the compound `CC1(C)C(=O)NN=C1c1ccc(N2CCOCC2)cc1`, the IC50 is > 10 µM (inactive).

`Cc1ccc(CCC(=O)N2CCN(c3ccc(C4=NNC(=O)CC4C)cc3)CC2)cc1` (stereo not drawn): the IC50 is > 10 µM (inactive).

As for `C[C@@H]1CC(=O)NN=C1c1ccc(C2=CCCCC2)cc1`, the IC50 was > 10 µM (inactive).

Regarding `C[C@@H]1CC(=O)NN=C1c1ccc(N2CCCCC2)cc1`, the IC50 is > 10 µM (inactive).

For the compound `CC(=O)Nc1ccc(C2=NNC(=O)C[C@H]2C)cc1`, the IC50 is > 10 µM (inactive).

For the compound `CC(=O)Nc1ccc(C2=NNC(=O)C[C@H]2C)cc1C(C)=O`, the IC50 was > 10 µM (inactive).

Regarding `CCN(CC)c1ccc(C2=NNC(=O)CC2C)cc1NCCOCCOCCNC(=O)OC(C)(C)C` (stereo not drawn), the IC50 is > 10 µM (inactive).

With `CC1CC(=O)NN=C1c1ccc(F)c(F)c1` (stereo not drawn), the IC50 is > 10 µM (inactive).

Turning to `C[C@@H]1CC(=O)NN=C1c1ccc(C2CCCCC2)cc1`, the IC50 was > 10 µM (inactive).

In the case of `CCNc1ccc(C2=NNC(=O)C[C@H]2C)cc1`, the IC50 was > 10 µM (inactive).

In the case of `C[C@@H]1CC(=O)NN=C1c1ccc(N2CCOCC2)cc1`, the IC50 is > 10 µM (inactive).

`C[C@H]1CC(=O)NN=C1c1ccc(N2CCOCC2)c(F)c1`: the IC50 is > 10 µM (inactive).

Regarding `C#Cc1cc(C2=NNC(=O)C[C@H]2C)ccc1NC(C)=O`, the IC50 is > 10 µM (inactive).

For `C[C@@H]1CC(=O)NN=C1c1ccc(N2CCCC2=O)cc1`, the IC50 was > 10 µM (inactive).

For `C[C@@H]1CC(=O)NN=C1c1ccc(N2CCN(C)CC2)cc1`, the IC50 is > 10 µM (inactive).

`CCN(CC)c1ccc(-c2n[nH]c(=O)cc2C)cc1`: the IC50 was > 10 µM (inactive).

For the compound `C[C@@H]1CC(=O)NN=C1c1ccccc1`, the IC50 is > 10 µM (inactive).

On to `CC1(C)C(=O)NN=C1c1ccc(N)cc1`, for which the IC50 was > 10 µM (inactive).

In the case of `C[C@@H]1CC(=O)NN=C1c1ccc(I)cc1`, the IC50 was > 10 µM (inactive).

Regarding `O=C1CC(c2ccccc2)=NN1`, the IC50 was > 10 µM (inactive).

As for `CCN(CC)c1ccc(C2=NNC(=O)C[C@H]2C)cc1`, the IC50 was > 10 µM (inactive).

For the compound `C[C@@H]1CC(=O)NN=C1c1ccc(-c2cncnc2)cc1`, the IC50 is > 10 µM (inactive).

Take `C[C@@H]1CC(=O)NN=C1c1ccc(N)c(Br)c1`: the IC50 was > 10 µM (inactive).

For `CCNc1ccc(C2=NNC(=O)C[C@H]2C)cc1[N+](=O)[O-]`, the IC50 was > 10 µM (inactive).

As to `CCN(CC)c1ccc(C2=NNC(=O)CC2C)cc1NC(C)=O` (stereo not drawn), the IC50 is > 10 µM (inactive).

Take `CCN(CC)c1ccc(C2=NNC(=O)C[C@H]2C)cc1[N+](=O)[O-]`: the IC50 is > 10 µM (inactive).

Consider `CC1CC(=O)NN=C1c1cccs1` (stereo not drawn), for which the IC50 is > 10 µM (inactive).

For the compound `CCN(CC)c1ccc(C2=NNC(=O)C2(C)C)cc1`, the IC50 is > 10 µM (inactive).

Turning to `C[C@@H]1CC(=O)NN=C1c1ccc(N2CCCCC2=O)cc1`, the IC50 is > 10 µM (inactive).

Consider `CCN(CC)c1ccc(C2=NNC(=O)CC2C)cc1N` (stereo not drawn), for which the IC50 was > 10 µM (inactive).

For `CCN1N=C(c2ccc(N(CC)CC)cc2)[C@H](C)CC1=O`, the IC50 was > 10 µM (inactive).

`C[C@@H]1CC(=O)NN=C1c1ccc(N2CCOCC2)c(F)c1`: the IC50 is > 10 µM (inactive).

Consider `CC(=O)Nc1ccc(C2=NNC(=O)C[C@H]2C)cc1[N+](=O)[O-]`, for which the IC50 is > 10 µM (inactive).

In the case of `C[C@@H]1CC(=O)NN=C1c1ccc(N2CCCOC2=O)cc1`, the IC50 is > 10 µM (inactive).

In the case of `CCCc1ccc(C2=NNC(=O)C[C@H]2C)cc1`, the IC50 was > 10 µM (inactive).

Turning to `C[C@@H]1CC(=O)NN=C1c1ccc(N2CCOCC2)cc1` (racemic), the IC50 is > 10 µM (inactive).

Take `CC(=O)Nc1ccc(C2=NNC(=O)C[C@H]2C)cc1Br`: the IC50 was > 10 µM (inactive).

Turning to `C[C@H]1CC(=O)NN=C1c1ccc(F)c(F)c1`, the IC50 was > 10 µM (inactive).

Turning to `C/C=C/c1ccc(C2=NNC(=O)C[C@H]2C)cc1`, the IC50 is > 10 µM (inactive).

With `CC1CC(=O)NN=C1c1ccc(N2CCN(C(=O)Cc3ccc(Cl)cc3Cl)CC2)cc1` (stereo not drawn), the IC50 was > 10 µM (inactive).

With `C[C@@H]1CC(=O)NN=C1c1ccc(F)cc1` (racemic), the IC50 is > 10 µM (inactive).

Regarding `C[C@@H]1CC(=O)NN=C1c1ccc(N2CCCCS2(=O)=O)cc1`, the IC50 is > 10 µM (inactive).

In the case of `CCN(CC)c1ccc(C2=NNC(=O)CC2C)cc1[N+](=O)[O-]` (stereo not drawn), the IC50 was > 10 µM (inactive).

For the compound `CC1CC(=O)N(c2ccccc2)N=C1c1ccc(Cl)cc1` (stereo not drawn), the IC50 was > 10 µM (inactive).

`CC1CC(=O)NN=C1c1ccc(N2CCOCC2)c(F)c1` (stereo not drawn): the IC50 was > 10 µM (inactive).

Consider `CC(=O)N1CCN(c2ccc(C3=NNC(=O)CC3C)cc2F)CC1` (stereo not drawn), for which the IC50 was > 10 µM (inactive).

With `CC(=O)Nc1ccc(-c2n[nH]c(=O)cc2C)cc1`, the IC50 is > 10 µM (inactive).

For `CCN(CC)c1ccc(C(=O)Nc2ccccc2)cc1[N+](=O)[O-]`, the IC50 is > 10 µM (inactive).

For `CCN(CC)c1ccc(C2=NNC(=O)CC2C)cc1` (stereo not drawn), the IC50 is > 10 µM (inactive).

As to `O=C1C[C@H]2CCc3cc(N4CCOCC4)ccc3C2=NN1` (racemic), the IC50 is > 10 µM (inactive).

In the case of `CC1(C)C(=O)NN=C1c1ccc(Cl)cc1`, the IC50 was > 10 µM (inactive).

Regarding `C[C@@H]1CC(=O)NN=C1c1ccc(Cl)cc1`, the IC50 was > 10 µM (inactive).

As for `C[C@@H]1CC(=O)NN=C1c1ccc([Si](C)(C)C)cc1`, the IC50 was > 10 µM (inactive).

For the compound `CC1C(=O)NN=C1c1ccc([N+](=O)[O-])cc1` (stereo not drawn), the IC50 is > 10 µM (inactive).

As for `CC1(C)C(=O)NN=C1c1ccc([N+](=O)[O-])cc1`, the IC50 was > 10 µM (inactive).
